# Measured values from patent publication US20250388575A1, “HETEROBIFUNCTIONAL COMPOUNDS AND METHODS OF TREATING DISEASE” (Halda Therapeutics OpCo, Inc., priority 2022, published 2025).
# Read-outs that look alike come from different tables or passages of the source.
# Columns and labels:
# T47D cells = assay: Cellular growth inhibition assay for T47D cells, CellTiter-Glo; format: cell-based, human; conditions: 72 hours treatment, CellTiter-Glo 2.0
# Summary of the method: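 Growth inhibition as GI50, fitted with four parameters to CellTiter-Glo luminescence after 72 h of compound exposure (0.5% DMSO). Cells were T47D, grown in insulin-supplemented (0.2 units/mL) DMEM with 10% FBS and treated one day post-seeding.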
# VCaP cells = assay: Cellular growth inhibition assay for VCaP cells, CellTiter-Glo; format: cell-based, human; conditions: VCaP cells, 72 hours, CellTiter-Glo, read-out: GI50
# Summary of the method: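 GI50 values come from four-parameter curve fits of luminescence data normalized to a zero baseline. Compound, in medium with 0.5% DMSO, was added one day after plating and left for 72 h before CellTiter-Glo 2.0 addition.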
# BRD4-BD1 = BRD4-BD1 (Homo sapiens (Human), UniProt O60885); assay: bromoKdELECT assay for binding affinity to BRD4-BD1; conditions: 11-point 3-fold dilution
SMILES,GI50 (T47D cells; Homo sapiens),GI50 (VCaP cells; Homo sapiens),Kd (BRD4-BD1),GI50 (T47D cells),GI50 (VCaP cells)
"CCS(=O)(=O)Nc1ccc(Oc2cccc(OCCOC3CCN(c4ccc(C(=O)N[C@H]5CC[C@H](Oc6ccc(C#N)c(Cl)c6)CC5)nn4)CC3)c2)c(-c2cn(C)c(=O)c3[nH]ccc23)c1 [I-1, N-[4-(3-chloro-4-cyano-phenoxy)cyclohexyl]-6-[4-[2-[3-[4-(ethylsulfonylamino)-2-(6-methyl-7-oxo-1H-pyrrolo[2,3-c]pyridin-4-yl)phenoxy]phenoxy]ethoxy]-1-piperidyl]pyridazine-3-carboxamide]",< 500 nM,< 500 nM,,,
CCS(=O)(=O)c1ccc(Oc2cccc(CCCOC3CC4(C3)CN(c3ccc(C(=O)N[C@H]5CC[C@H](Oc6ccc(C#N)c(Cl)c6)CC5)nn3)C4)c2F)c(-c2cn(C)c(=O)c3[nH]ccc23)c1 [I-46],< 500 nM,< 500 nM,500 to 2500 nM,,
CCS(=O)(=O)c1ccc(Oc2cccc(CCC3CCN(c4ccc(C(=O)N[C@H]5CC[C@H](Oc6ccc(C#N)c(Cl)c6)CC5)nn4)CC3)c2F)c(-c2cn(C)c(=O)c3[nH]ccc23)c1 [I-51],< 500 nM,< 500 nM,50 to 500 nM,,
CCS(=O)(=O)c1ccc(Oc2cccc(CCCC3CCN(c4ccc(C(=O)N[C@H]5CC[C@H](Oc6ccc(C#N)c(Cl)c6)CC5)nn4)CC3)c2F)c(-c2cn(C)c(=O)c3[nH]ccc23)c1 [I-52],,,50 to 500 nM,< 500 nM,< 500 nM
CCS(=O)(=O)c1ccc(Oc2cc(F)c(CCC3CCN(c4ccc(C(=O)N[C@H]5CC[C@H](Oc6ccc(C#N)c(Cl)c6)CC5)nn4)CC3)cc2F)c(-c2cn(C)c(=O)c3[nH]ccc23)c1 [I-59],,,500 to 2500 nM,< 500 nM,< 500 nM
"Cn1cc(-c2cc(C(C)(C)O)ccc2Oc2ccc(OC3CN(c4ccc(C(=O)N[C@H]5CC[C@H](Oc6ccc(C#N)c(Cl)c6)CC5)nn4)C3)cc2)c2cc[nH]c2c1=O [I-95, N-[4-(3-chloro-4-cyano-phenoxy)cyclohexyl]-6-[3-[4-[4-(1-hydroxy-1-methyl-ethyl)-2-(6-methyl-7-oxo-1H-pyrrolo[2,3-c]pyridin-4-yl)phenoxy]phenoxy]azetidin-1-yl]pyridazine-3-carboxamide]",500 to 1500 nM,< 500 nM,500 to 2500 nM,,
Cn1cc(-c2cc(C(C)(C)O)ccc2Oc2ccc(CCC3CCN(c4ccc(C(=O)N[C@H]5CC[C@H](Oc6ccc(C#N)c(Cl)c6)CC5)nn4)CC3)cc2)c2cc[nH]c2c1=O [I-102],,,> 2500 nM,,< 500 nM
Cn1cc(-c2cc(C(C)(C)O)ccc2Oc2c(F)cc(CCOC3CCN(c4ccc(C(=O)N[C@H]5CC[C@H](Oc6ccc(C#N)c(Cl)c6)CC5)nn4)CC3)cc2F)c2cc[nH]c2c1=O [I-109],< 500 nM,< 500 nM,500 to 2500 nM,,
"Cn1cc(-c2cc(C(C)(C)O)ccc2O[C@H]2C[C@H](N(C)CC3CCN(c4ccc(C(=O)N[C@H]5CC[C@H](Oc6ccc(C#N)c(Cl)c6)CC5)nn4)CC3)C2)c2cc[nH]c2c1=O [I-158, N-((1r,4r)-4-(3-chloro-4-cyanophenoxy)cyclohexyl)-6-(4-((((1r,3r)-3-(4-(2-hydroxypropan-2-yl)-2-(6-methyl-7-oxo-6,7-dihydro-1H-pyrrolo[2,3-c]pyridin-4-yl)phenoxy)cyclobutyl)(methyl)amino)methyl)piperidin-1-yl)pyridazine-3-carboxamide]",< 500 nM,< 500 nM,50 to 500 nM,,
